Here are results for one compound from BindingDB's records for doi:10.1021/jm0200660 (Berlex Biosciences, 2002).

Structures are written as SMILES.

The assay has as its target Cationic trypsin (Bos taurus). Briefly: Inhibitory constant against bovine trypsin for general specificity against serine proteases.

Compound `Cc1c(F)c(Oc2cccc(C(=N)N)c2)nc(Oc2cccc(C(N)=O)c2)c1F` [3-[6-(3-Carbamimidoyl-phenoxy)-3,5-difluoro-4-methyl-pyridin-2-yloxy]-benzamide] yielded an inhibitory constant (Ki) above 5 µM.
